These are literature values, as cited in PMC9441699 (Frontiers in Cellular and Infection Microbiology, 2022).

Like-named read-outs stand apart in the source and are kept apart here.

One data set deals with RdRp Dengue virus. Also on record: method as in Coulerie et al., 2013. As to conditions: in vitro; ref Coulerie et al., 2013.
The target of data set [1] is angiotensin converting enzyme from rabbit lung. Set-up: method as in Yu et al., 2012. As to conditions: 0.01-10 µM; ref Yu et al., 2012.
In data set [2] the test system is SARS-CoV. As to conditions: read-out: EC50 SARS-CoV viral replication.
Data set [3] relates to interaction of S protein with ACE2. Also on record: method as in Ho et al., 2007; dose or concentration left out as unconfirmed. As to conditions: ref Ho et al., 2007.
Data set [4] concerns SARS-CoV. As to conditions: ref Li et al., 2005.
In another data set the test system is MERS-CoV. As to conditions: 2019.
A further data set relates to HcoV-OC43. The settings on record: 2019.
Data set [5] relates to HcoV-NL63 inLLC-MK2 cells. Also on record: method as in Weng et al., 2019. As to conditions: 0, 10, 50,100 µM/36h; ref Weng et al., 2019; read-out: Inhibition of viral cytopathicity IC50.
The subject of another data set is Vero cells. Also on record: method as in Ho et al., 2007. The settings on record: 0, 10, 50, 100, 200 and 400 µ/mL; ref Ho et al., 2007.
[6] abbreviates: tanshinones from Salvia miltiorrhiza, read-out: IC50 against PLpro.
The mark [7] stands for this setting: 1, 2.5, 20 µM/16h, ref Jo et al., 2020, read-out: IC50.

`Cc1cccc2c3c(ccc12)C1=C(C(=O)C3=O)[C@@H](C)CO1` [Ligand L09, Dihydrotanshinone l,]: the IC50 in the data set on SARS-CoV-PLpro (setting [6]) is 4.9 µM; with SARS-CoV-3CLpro (0-200 µM/60min, ref Park et al., 2012b, read-out: IC50), 14.4 µM.
Regarding `O=c1c(O)c(-c2ccc(O)cc2)oc2c(O)c(O)cc(O)c12` [Ligand L16, Herbacetin], the IC50 in the data set with SARS-CoV-3CLpro (setting [7]) is 33.2 µM.
Regarding `COc1ccc(-c2cc(=O)c3c(O)c(OC)c(O[C@@H]4O[C@H](CO[C@@H]5O[C@@H](C)[C@H](O)[C@@H](O)[C@H]5O)[C@@H](O)[C@H](O)[C@H]4O)cc3o2)cc1` [Ligand L17, Pectolinarin], the IC50 in the data set on SARS-CoV-3CLpro (setting [7]) was 37.8 µM.
`COc1cc(O)c2c(=O)cc(-c3ccc(O)cc3)oc2c1-c1cc(-c2cc(=O)c3c(O)cc(O)cc3o2)ccc1O` [sotetsuflavone]: the IC50 in the data set with RdRp Dengue virus is 0.16 µM.
Take `COc1cc([C@H]2Oc3cc4c(c(O)c3C(=O)[C@@H]2O)CCC(C)(CCCC(C)(C)O)O4)ccc1O` (stereo partly shown) [Ligand L06, Tomentin E]: the IC50 in the data set with SARS-CoV-PLpro (0, 6.25, 12.5, 25 µM, ref Cho et al., 2013, read-out: IC50) was 5 µM.
`O=c1c(O)c(-c2cc(O)c(O)c(O)c2)oc2cc(O)cc(O)c12` [Ligand L03, Myricetin]: the “inhibitory effect against SARS-CoV helicase” value in the data set with SARS-CoV helicase is on record as “moderate inhibitory impacts”. For the same molecule, in [1], the IC50 was 2.71 µM.
For the molecule `C[C@@H]1O[C@@H](O[C@H]2[C@H](Oc3cc(O)c4c(=O)cc(-c5ccc(O)cc5)oc4c3)O[C@H](CO)[C@@H](O)[C@@H]2O)[C@H](O)[C@H](O)[C@H]1O` [Ligand L18, Rhoifolin], the IC50 with SARS-CoV-3CLpro (setting [7]) is 27.4 µM.
Turning to `COC(=O)[C@H]1[C@H]2C[C@@H]3c4[nH]c5cc(OC)ccc5c4CCN3C[C@H]2C[C@@H](OC(=O)c2cc(OC)c(OC)c(OC)c2)[C@@H]1OC` [Reserpine], the EC50 in the data set with SARS-CoV [2] was 3.4 µM.
For `Cc1coc2c1C(=O)C(=O)c1c-2ccc2c1CCCC2(C)C` [tanshinone IIA], in the data set on SARS-CoV-PLpro (setting [6]), the IC50 is 1.6 µM.
Turning to `O=C(/C=C/CCc1ccc(O)c(O)c1)CCc1ccc(O)c(O)c1` [Ligand L01, Hirsutenone], the IC50 with SARS-CoV-PLpro (0-200 µM/60min, ref Park et al., 2012a, read-out: IC50) is 4.1 µM.
On to `O=c1cc(-c2ccccc2)oc2cc(O)cc(O)c12` [chrysin], for which the “effect on the interaction of S protein with ACE2” value in data set [3] was “weak inhibitory effect”.
For `Oc1cc(O)cc(Oc2c(O)cc(O)c3c2Oc2c(O)cc(Oc4c(O)cc(Oc5c(O)cc(O)c6c5Oc5c(O)cc(O)cc5O6)cc4O)cc2O3)c1` [Ligand L05, Dieckol], the IC50 with SARS-CoV-3CLpro (0-200 µM, ref Park et al., 2013, read-out: IC50) was 2.7 µM.
`O[C@H]1[C@H]2c3cc4c(cc3CN3CCC(=C[C@@H]1O)[C@H]23)OCO4` [lycorine]: the EC50 was 0.0157 ± 0.0012 µM in the data set with SARS-CoV [4] (MTS test, read-out: EC50 against SARS-CoV); 1.63 µM in the data set on MERS-CoV (in vitro, ref Shen et al.); 0.47 µM with HcoV-NL63 (in vitro, ref Shen et al., 2019, read-out: EC50 HcoV-NL63); 0.15 µM in the data set with HcoV-OC43 (in vitro, ref Shen et al.). The IC50 with SARS-CoV [4] (Prasansuklab et al., 2020, read-out: IC50 anti-SARS-CoV) was 0.0157 µM.
`O=C(O)c1cc(O)c(O)c(O)c1` [Ligand L12, Gallic acid]: in [5], the IC50 was 71.5 µM.
In the case of `O=c1cc(-c2ccc(O)c(-c3c(O)cc(O)c4c(=O)cc(-c5ccc(O)cc5)oc34)c2)oc2cc(O)cc(O)c12` [Ligand L14, Amentoflavone], the 50% inhibitory concentration (IC50) with SARS-CoV-3CLpro (0-300 µM, ref Ryu et al., 2010a, read-out: IC50) was 8.3 µM.
In the case of `O=c1cc(-c2ccc(O)cc2)oc2cc(O)c(O)c(O)c12` [Ligand L13, Scutellarein], the “inhibitory effect against SARS-CoV helicase” value in the data set on SARS-CoV helicase is on record as “moderate inhibitory impacts”. Besides, the IC50 at SARS-CoV helicase (0.01-10 µM, In vitro, ref Yu et al., 2012) was 0.86 µM.
Take `O=C(O)/C=C/c1ccc(O)c(O)c1` [Ligand L10, Caffeic acid]: the IC50 in data set [5] was 3.54 µM.
Take `COc1cc(/C=C/C(=O)NC(O)C(=O)c2ccc(O)cc2)ccc1O` (stereo not shown) [Ligand L15, Terrestrimine]: the IC50 with SARS-CoV-PLpro (1,10,100,1000 µM, ref Song et al., 2014, read-out: IC50) was 15.8 µM.
For the molecule `CC[C@H](CC[C@@H](C)[C@H]1CC[C@H]2[C@@H]3CC=C4C[C@@H](O)CC[C@]4(C)[C@H]3CC[C@]12C)C(C)C` [Sitosternol], the EC50 with HcoV-NL63 (ref Lin et al., 2005, read-out: EC50 against human coronavirus (HCoV-NL63)) was 1210 µM.
On to `C=C(C)C(Cc1c(OC)ccc(C(=O)/C=C/c2ccc(O)cc2)c1O)OO` (stereo not shown) [Ligand L02, Xanthoangelol E], for which the IC50 in the data set with SARS-CoV-PLpro (0, 12.5, 25, 50 µM, ref Park et al., 2016, read-out: Inhibition of SARS-CoV-PLpro activity IC50) was 1.2 µM; in the data set with SARS-CoV-3CLpro (0, 12.5, 25, 50 µM, ref Park et al., 2016, read-out: Inhibition of SARS-CoV-3CLpro activity IC50), 11.4 µM.
On to curcumin, for which, in the data set with SARS-CoV-PLpro (diarylheptanoids, ref Park et al., 2012a, read-out: IC50 PLpro), the IC50 was 5.7 µM.
For `COc1ccc(C(=O)/C=C/c2ccc(O)cc2)c(O)c1C/C=C(\C)CCC=C(C)C` [xanthoangelol F], in the data set with SARS-CoV-PLpro (noncompetitive inhibition, ref Park et al., 2016, read-out: IC50 PLpro), the IC50 is 5.6 µM.
For the molecule `C[C@H]1COC2=C1C(=O)C(=O)c1c2ccc2c1CCCC2(C)C` [Ligand L08, Cryptotanshinone], the IC50 with SARS-CoV-PLpro (0-200 µM/30min, ref Park et al., 2012b, read-out: IC50) was 0.8 µM.
For `CC(C)=CCc1cc2c(cc1O)oc(=O)c1c3ccc(O)cc3oc21` [Ligand L04, Psoralidin], the IC50 in the data set with SARS-CoV-PLpro (0-100 µM, ref Kim et al., 2014, read-out: IC50) was 4.2 µM.
Take `CC[C@H]1CN2CCc3cc(OC)c(OC)cc3[C@@H]2C[C@@H]1C[C@H]1NCCc2cc(OC)c(OC)cc21` [Emetine, reference compound]: the EC50 is 0.34 µM in the data set on MERS-CoV (ref Weber and Opatz); 1.43 µM in the data set with HcoV-NL63 (ref Weber and Opatz, 2019, read-out: EC50 HcoV-NL63); 0.3 µM in the data set on HcoV-OC43 (ref Weber and Opatz).
As to `O=C(/C=C/c1ccc(O)c(O)c1)O[C@@H]1C[C@](O)(C(=O)O)C[C@@H](O)[C@H]1O` [Ligand L11, Chlorogenic acid], in data set [5], the IC50 was 43.5 µM.
Take `Cc1cc(O)c2c(c1)C(=O)c1cc(O)cc(O)c1C2=O` [Ligand L07, Emodin]: the IC50 in the data set with Vero cells was 200 µM.
